Experimental data reported in ChEMBL document CHEMBL1201862, “PubChem BioAssay data set” (2004).
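Cells were grown in 96-well plates and exposed to each compound for 48 hours at five concentrations; endpoints were interpolated linearly between bracketing concentrations, or set to the highest concentration if not reached. GI50 = concentration required for 50% inhibition of growth.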 The source made the active and inactive calls. No stated cut-off is given here; in the data, active = GI50 up to about 1.1 µM and inactive = higher.

How the values were obtained:
Assay in all cases: growth of human tumour cells (NCI), 48 h
UO-31 = system: UO-31
U-251 = system: U-251
HCT-116 = system: HCT-116
K562 = system: K562
OVCAR-3 = system: OVCAR-3
HCC 2998 = system: HCC 2998
M14 = system: M14
LXFL 529 = system: LXFL 529
CAKI-1 = system: CAKI-1
OVCAR-8 = system: OVCAR-8
NCI-H226 = system: NCI-H226
SK-MEL-2 = system: SK-MEL-2
SNB-19 = system: SNB-19
SF-295 = system: SF-295
KM12 = system: KM12
NCI-H522 = system: NCI-H522
RXF 393 = system: RXF 393
SR = system: SR

Measured: GI50

O=C(CCc1cc(-c2ccccc2)nc(S)n1)N(Cc1ccccc1)Cc1ccccc1
inactive: UO-31 > 100 µM | U-251 > 100 µM | HCT-116 > 100 µM | K562 > 100 µM | OVCAR-3 > 100 µM | HCC 2998 > 100 µM | M14 > 100 µM | LXFL 529 > 100 µM | CAKI-1 > 100 µM | OVCAR-8 > 100 µM | NCI-H226 > 100 µM | SK-MEL-2 > 100 µM | SNB-19 > 100 µM | SF-295 > 100 µM | KM12 > 100 µM | NCI-H522 > 100 µM

NCCn1ccc(NC(c2ccccc2)(c2ccccc2)c2ccccc2)nc1=O
inactive: UO-31 > 100 µM | U-251 20.7 µM | RXF 393 4.08 µM | HCT-116 18.2 µM | K562 20.1 µM | OVCAR-3 25.8 µM | HCC 2998 18 µM | LXFL 529 16.7 µM | OVCAR-8 39.8 µM | NCI-H226 15.8 µM | SR 19.4 µM | SK-MEL-2 18.7 µM | SNB-19 > 10 µM | SF-295 19.8 µM | KM12 21.7 µM | NCI-H522 18.1 µM

CCOC(=O)CC1COc2ccc3c(c21)OCO3 (stereo not drawn)
inactive: UO-31 > 100 µM | U-251 > 100 µM | HCT-116 > 100 µM | K562 > 100 µM | OVCAR-3 > 100 µM | HCC 2998 > 100 µM | M14 > 100 µM | LXFL 529 > 100 µM | OVCAR-8 > 100 µM | NCI-H226 > 100 µM | SR > 100 µM | SK-MEL-2 > 100 µM | SNB-19 > 100 µM | SF-295 > 100 µM | KM12 > 100 µM

COc1ccc(/C=N/NC(=O)CSc2nc(-c3ccccc3)c(-c3ccccc3)[nH]2)cc1OC
inactive: UO-31 25.5 µM | U-251 25.6 µM | RXF 393 20.1 µM | HCT-116 34.5 µM | OVCAR-3 17.1 µM | M14 17.7 µM | LXFL 529 22.1 µM | CAKI-1 33.1 µM | OVCAR-8 16.2 µM | NCI-H226 30.8 µM | SK-MEL-2 20.7 µM | SNB-19 34.5 µM | SF-295 24.2 µM | KM12 17.2 µM | NCI-H522 19.7 µM

CCCCCCCCCCC(O)CCCCCCC(=O)O (stereo not drawn)
inactive: UO-31 29.9 µM | U-251 14.9 µM | RXF 393 34.1 µM | HCT-116 17.2 µM | K562 13.2 µM | OVCAR-3 19.9 µM | M14 19.1 µM | LXFL 529 23.4 µM | CAKI-1 36.3 µM | OVCAR-8 16.2 µM | NCI-H226 52 µM | SR 15.1 µM | SK-MEL-2 47.9 µM | SNB-19 48.8 µM | SF-295 27.1 µM | KM12 16.3 µM | NCI-H522 24.5 µM

O=[PH](O)c1ccccn1
inactive: UO-31 > 100 µM | U-251 > 100 µM | RXF 393 > 100 µM | HCT-116 > 100 µM | K562 > 100 µM | OVCAR-3 > 100 µM | HCC 2998 > 100 µM | M14 > 100 µM | LXFL 529 > 100 µM | CAKI-1 > 100 µM | OVCAR-8 > 100 µM | NCI-H226 > 100 µM | SNB-19 > 100 µM | SF-295 > 100 µM | KM12 > 100 µM | NCI-H522 > 100 µM

CC1OC(OCC2OC(Oc3c(-c4ccc(O)cc4)oc4cc(O)cc(O)c4c3=O)C(OC3OCC(O)(CO)C3O)C(O)C2O)C(O)C(O)C1O (stereo not drawn)
inactive: UO-31 > 100 µM | U-251 44.6 µM | HCT-116 31.2 µM | K562 29.4 µM | OVCAR-3 > 100 µM | HCC 2998 > 100 µM | M14 > 100 µM | LXFL 529 > 100 µM | CAKI-1 > 100 µM | OVCAR-8 > 100 µM | NCI-H226 > 100 µM | SR > 100 µM | SK-MEL-2 > 100 µM | SNB-19 > 100 µM | SF-295 > 100 µM | KM12 > 100 µM | NCI-H522 > 100 µM

CCOC(=O)c1oc2c(OC)ccc3c2c1CCC3
inactive: UO-31 33.6 µM | U-251 > 100 µM | RXF 393 > 100 µM | K562 66.8 µM | OVCAR-3 > 100 µM | HCC 2998 > 100 µM | M14 > 100 µM | LXFL 529 > 100 µM | OVCAR-8 > 100 µM | SR > 100 µM | SK-MEL-2 > 100 µM | SNB-19 > 100 µM | SF-295 > 100 µM | KM12 > 100 µM | NCI-H522 > 100 µM

CCOC(=O)C1S/C(=N\c2ccccc2)N=C1C (stereo not drawn)
inactive: UO-31 53.3 µM | U-251 > 100 µM | RXF 393 > 100 µM | HCT-116 > 100 µM | K562 40.7 µM | OVCAR-3 97.1 µM | HCC 2998 > 100 µM | LXFL 529 65.8 µM | OVCAR-8 > 100 µM | NCI-H226 74 µM | SR 45.3 µM | SK-MEL-2 > 100 µM | SNB-19 > 100 µM | SF-295 > 100 µM | KM12 > 100 µM | NCI-H522 44.7 µM
